In ChEMBL document CHEMBL1212769, “Multiple-dose safety, tolerability, and pharmacokinetics of oral nemonoxacin (TG-873870) in healthy volunteers” (Antimicrob Agents Chemother, 2010):

How the values were obtained:
[1] = Renal clearance in human at 75 […], po measured on day 10; type: ADME, organism-based, Kidney; design: route oral; settings: in vivo, read-out: CL_renal (converted)
[2] = Renal clearance in human at 250 […], po measured on day 1; type: ADME, organism-based, Kidney; design: route oral; settings: in vivo, read-out: CL_renal (converted)
[3] = Renal clearance in human at 250 […], po measured on day 10; type: ADME, organism-based, Kidney; design: route oral; settings: in vivo, read-out: CL_renal (converted)
[4] = Renal clearance in human at 500 […], po measured on day 1; type: ADME, organism-based, Kidney; design: route oral; settings: in vivo, read-out: CL_renal (converted)
[5] = Renal clearance in human at 500 […], po measured on day 10; type: ADME, organism-based, Kidney; design: route oral; settings: in vivo, read-out: CL_renal (converted)
[6] = Renal clearance in human at 500 […], po measured on day 16; type: ADME, organism-based, Kidney; design: route oral; settings: in vivo, read-out: CL_renal (converted)
[7] = Renal clearance in human at 750 […], po measured on day 1; type: ADME, organism-based, Kidney; design: route oral; settings: in vivo, read-out: CL_renal (converted)
[8] = Renal clearance in human at […], po measured on day 10; type: ADME, organism-based, Kidney; settings: in vivo, read-out: CL_renal (converted)
[9] = Renal clearance in human at 1000 […], po measured on day 1; type: ADME, organism-based, Kidney; design: route oral; settings: in vivo, read-out: CL_renal (converted)
[10] = Renal clearance in human at 1000 […], po measured on day 10; type: ADME, organism-based, Kidney; design: route oral; settings: in vivo, read-out: CL_renal (converted)
[11] = AUC (0 to 24 hrs) in human at 75 mg/kg, po measured on day 10; type: ADME, organism-based; design: time < 24 hr, dose 75 mg/kg, route oral; settings: plasma
[12] = AUC (0 to last) in human at 75 mg/kg, po measured on day 1; type: ADME, organism-based; design: time 0 - last, dose 75 mg/kg, route oral; settings: plasma
[13] = AUC (0 to 24 hrs) in human at 250 mg/kg, po measured on day 10; type: ADME, organism-based; design: time < 24 hr, dose 250 mg/kg, route oral; settings: plasma
[14] = AUC (0 to last) in human at 250 mg/kg, po measured on day 1; type: ADME, organism-based; design: time 0 - last, dose 250 mg/kg, route oral; settings: plasma
[15] = AUC (0 to 24 hrs) in human at 750 mg/kg, po measured on day 10; type: ADME, organism-based; design: time < 24 hr, dose 750 mg/kg, route oral; settings: plasma
[16] = AUC (0 to last) in human at 750 mg/kg, po measured on day 1; type: ADME, organism-based; design: dose 750 mg/kg, route oral, time 0 - last; settings: plasma
[17] = AUC (0 to 24 hrs) in human at 1000 […], po measured on day 10; type: ADME, organism-based; design: time < 24 hr, dose 1000 mg/kg, route oral; settings: plasma
[18] = AUC (0 to last) in human at 1000 […], po measured on day 1; type: ADME, organism-based; design: time 0 - last, dose 1000 mg/kg, route oral; settings: plasma
[19] = AUC (0 to 24 hrs) in human at 500 mg/kg, po measured on day 1; type: ADME, organism-based; design: time < 24 hr, dose 500 mg/kg, route oral; settings: plasma
[20] = AUC (0 to 24 hrs) in human at 500 mg/kg, po measured on day 16; type: ADME, organism-based; design: time < 24 hr, dose 500 mg/kg, route oral; settings: plasma
[21] = AUC(0 to last) in human at 500 mg/kg, po measured on day 1; type: ADME, organism-based; design: time 0 - last, dose 500 mg/kg, route oral; settings: plasma
[22] = AUC (0 to last) in human at 500 mg/kg, po measured on day 10; type: ADME, organism-based; design: time 0 - last, dose 500 mg/kg, route oral; settings: plasma
[23] = Oral clearance in human at 750 […] measured on day 1; type: ADME, organism-based; settings: in vivo
[24] = Oral clearance in human at 750 […] measured on day 10; type: ADME, organism-based; settings: in vivo
[25] = test system: Streptococcus pneumoniae; assay: Ratio of fAUC (0 to 24 hrs) to MIC90 for Streptococcus pneumoniae; type: functional
[26] = Cmax in human at 500 […], po measured on day 16; type: ADME, organism-based; design: dose 500 mg/kg, route oral; settings: in vivo
[27] = test system: Homo sapiens; assay: Toxicity in human assessed as incidence of headache at 1000 […], po administered as single dose; type: organism-based; design: route oral; settings: in vivo
[28] = test system: Homo sapiens; assay: Toxicity in human assessed as occurrence of dermatitis at 250 […], po administered as single dose; type: organism-based; design: route oral; settings: in vivo
[29] = test system: Homo sapiens; assay: Toxicity in human assessed as occurrence of dermatitis at 500 […], po administered as single dose; type: organism-based; design: route oral; settings: in vivo
[30] = test system: Homo sapiens; assay: Toxicity in human assessed as occurrence of dermatitis at 750 […], po administered as single dose; type: organism-based; design: route oral; settings: in vivo
[31] = test system: Homo sapiens; assay: Toxicity in human assessed as occurrence of rashes at 75 […], po administered as single dose; type: organism-based; design: route oral; settings: in vivo
[32] = test system: Homo sapiens; assay: Toxicity in human assessed as occurrence of rashes at 250 […], po administered as single dose; type: organism-based; design: route oral; settings: in vivo
[33] = test system: Homo sapiens; assay: Toxicity in human assessed as occurrence of rashes at 1000 […], po administered as single dose; type: organism-based; design: route oral; settings: in vivo
[34] = test system: Homo sapiens; assay: Toxicity in human assessed as occurrence of abdominal pain at 250 […], po administered as single dose; type: organism-based, Abdomen; design: route oral; settings: in vivo
[35] = test system: Homo sapiens; assay: Toxicity in human assessed as occurrence of abdominal pain at 500 […], po administered as single dose; type: organism-based, Abdomen; design: route oral; settings: in vivo
[36] = test system: Homo sapiens; assay: Toxicity in human assessed as occurrence of abdominal pain at 750 […], po administered as single dose; type: organism-based, Abdomen; design: route oral; settings: in vivo
[37] = test system: Homo sapiens; assay: Toxicity in human assessed as occurrence of abdominal pain at 1000 […], po administered as single dose; type: organism-based, Abdomen; design: route oral; settings: in vivo
[38] = test system: Homo sapiens; assay: Toxicity in human assessed as occurrence of pruritus at 75 […], po administered as single dose; type: organism-based; design: route oral; settings: in vivo
[39] = test system: Homo sapiens; assay: Toxicity in human assessed as occurrence of pruritus at 250 […], po administered as single dose; type: organism-based; design: route oral; settings: in vivo
[40] = test system: Homo sapiens; assay: Toxicity in human assessed as occurrence of pruritus at 500 […], po administered as single dose; type: organism-based; design: route oral; settings: in vivo
[41] = test system: Homo sapiens; assay: Toxicity in human assessed as occurrence of diarrhea at 250 […], po administered as single dose; type: organism-based; design: route oral; settings: in vivo
[42] = test system: Homo sapiens; assay: Toxicity in human assessed as occurrence of diarrhea at 500 […], po administered as single dose; type: organism-based; design: route oral; settings: in vivo
[43] = test system: Homo sapiens; assay: Toxicity in human assessed as occurrence of diarrhea at 750 […], po administered as single dose; type: organism-based; design: route oral; settings: in vivo
[44] = test system: Homo sapiens; assay: Toxicity in human assessed as occurrence of diarrhea at […], po administered as single dose; type: organism-based; design: route oral; dose or concentration left out as unconfirmed; settings: in vivo
[45] = test system: Homo sapiens; assay: Toxicity in human assessed as occurrence of pollakiuria at 75 […], po administered as single dose; type: organism-based; design: route oral; settings: in vivo
[46] = test system: Homo sapiens; assay: Toxicity in human assessed as occurrence of pollakiuria at 250 […], po administered as single dose; type: organism-based; design: route oral; settings: in vivo
[47] = test system: Homo sapiens; assay: Toxicity in human assessed as occurrence of pollakiuria at 500 […], po administered as single dose; type: organism-based; design: route oral; settings: in vivo
[48] = test system: Homo sapiens; assay: Toxicity in human assessed as occurrence of somnolence at 250 […], po administered as single dose; type: organism-based; design: route oral; settings: in vivo
[49] = test system: Homo sapiens; assay: Toxicity in human assessed as occurrence of somnolence at 500 […], po administered as single dose; type: organism-based; design: route oral; settings: in vivo
[50] = test system: Homo sapiens; assay: Toxicity in human assessed as occurrence of somnolence at 750 […], po administered as single dose; type: organism-based; design: route oral; settings: in vivo
[51] = test system: Homo sapiens; assay: Toxicity in human assessed as occurrence of somnolence at 1000 […], po administered as single dose; type: organism-based; design: route oral; settings: in vivo
[52] = Cmax in human at 75 […], po measured on day 1; type: ADME, organism-based; design: dose 75 mg/kg, route oral; settings: in vivo
[53] = Cmax in human at 250 […], po measured on day 1; type: ADME, organism-based; design: dose 250 mg/kg, route oral; settings: in vivo
[54] = organism: Homo sapiens; assay: Plasma protein binding in human; settings: read-out: PPB (converted)

COc1c(N2C[C@@H](C)C[C@H](N)C2)ccc2c(=O)c(C(=O)O)cn(C3CC3)c12 [NEMONOXACIN]
CL renal [1]: 168 mL/min
CL renal [2]: 115 mL/min
CL renal [3]: 129 mL/min
CL renal [4]: 115 mL/min
CL renal [5]: 131 mL/min
CL renal [6]: 113 mL/min
CL renal [7]: 133 mL/min
CL renal [8]: 93.8 mL/min
CL renal [9]: 125 mL/min
CL renal [10]: 115 mL/min
AUC at 24 h [11]: 4270 ng·h/mL
AUC(0-t) [12]: 3780 ng·h/mL
AUC at 24 h [13]: 16100 ng·h/mL
AUC(0-t) [14]: 13700 ng·h/mL
AUC at 24 h [15]: 58400 ng·h/mL
AUC(0-t) [16]: 46000 ng·h/mL
AUC at 24 h [17]: 74800 ng·h/mL
AUC(0-t) [18]: 59600 ng·h/mL
AUC(0-t) at 24 h [19]: 31600 ng·h/mL
AUC at 24 h [20]: 22700 ng·h/mL
AUC(0-t) [21]: 31600 ng·h/mL
AUC(0-t) [22]: 46700 ng·h/mL
CL/F [23]: 252 mL/min
CL/F [24]: 189 mL/min
Ratio [25]: > 100
Cmax [26]: 2750 ng/mL
Activity [27]: 0%
Activity [28]: 0%
Activity [29]: 0%
Activity [30]: 0%
Activity [31]: 0%
Activity [32]: 0%
Activity [33]: 0%
Activity [34]: 0%
Activity [35]: 0%
Activity [36]: 0%
Activity [37]: 0%
Activity [38]: 0%
Activity [39]: 0%
Activity [40]: 0%
Activity [41]: 0%
Activity [42]: 0%
Activity [43]: 0%
Activity [44]: 0%
Activity [45]: 0%
Activity [46]: 0%
Activity [47]: 0%
Activity [48]: 0%
Activity [49]: 0%
Activity [50]: 0%
Activity [51]: 0%
Cmax [52]: 502 ng/mL
Cmax [53]: 2000 ng/mL
fraction unbound [54]: 0.84
